Results published in patent US20180171411A1, “GFRalpha1 AS A BIOMARKER FOR CISPLATIN-INDUCED CHEMORESISTANCE AND METASTASIS” (THE BOARD OF REGENTS OF THE UNIVERSITY OF TEXAS SYSTEM, priority 2015, published 2018).

B1: GDNF: glial cell line-derived neurotrophic factor, the major ligand of GFRα1 (protein, UniProt P39905 78-211, looked up)
Glial cell line-derived …: SPDKQMAVLPRRERNRQAAAANPENSRGKGRRGQRGKNRGCVLTAIHLNVTDLGLGYETKEELIFRYCSGSCDAAETTYDKILKNLSRNRRLVSDKVGQACCRPIAFDDDLSFLDDNLVYHILRKHSAKRCGCI

Tested on: GFRα1-overexpressing MG-63 cells
Test: WST-1 cell viability of GFRα1-overexpressing osteosarcoma cells
Type: cell-based, human
Protocol: FIG. 3. GFRα1-induced autophagy enhances the chemoresistance of osteosarcoma cells induced by cisplatin. (a) Control and GFRα1-deficient MG-63 cells were transiently transfected with a mRFP-GFP tandem fluorescent-tagged LC3 (mRFP-GFP-LC3) vector and then treated with cisplatin (20μM) for 24 hr. Left, representative images of RFP-LC3 and GFP-LC3 puncta. Scale bar, 20 μm. Right, quantitative analysis of the number of yellow puncta and the number of RFP-LC3 puncta in the combined images. The values are represented as a mean±s.d.m. (n=3). ** denotes p<0.05 by t-test. (b) Control and GFRα1-deficient MG-63 cells were treated with cisplatin (20 μM) for 24 hr and then stained with acridine orange. Top, representative images of cells stained with acridine orange. Scale bar, 20 μm. Bottom, quantitative analysis of the number of AVOs. The values are represented as a mean±s.d.m. (n=3). ** denotes p<0.05 by t-test. (c) Control and GFRα1-deficient MG-63 cells were treated with cisplatin (20 μM) for 24 hr and then analyzed by TEM. Top, representative images of autophagic vacuoles (yellow arrows) detected after cisplatin treatment in control MG-63 cells. Scale bar, 100 nm. Bottom, quantitative analysis of the number of autophagic vacuoles. The values are represented as a mean±s.d.m. (n=3). ** denotes p<0.05 by t-test. (d) Immunoblot analysis of control and GFRα1-overexpressing osteosarcoma cell lysates with antibodies specific for GFRα1, LC3 and β-actin. […] (e) Quantitative analysis of the number of yellow puncta and the number of RFP-LC3 puncta in control and GFRα1-overexpressing MG-63 cells. […] Bottom, quantitative analysis of the number of AVOs. […] (h) Control and GFRα1-overexpressing MG-63 cells were treated with cisplatin (20 μM) for 24 hr and then analyzed by TEM. Top, representative images of autophagic vacuoles detected after cisplatin treatment in control and GFRα1-overexpressing MG-63 cells. […] Bottom, quantitative analysis of the number of autophagic vacuoles. […] Cell viability was measured using the WST-1 assay. […] Cell viability was measured using the WST-1 assay. […]

Molecule | increase of cell proliferation in GFRα1 overexpressing cells (with DMSO, 3-MA or Baf, then cisplatin 20 μM 24 hr) | GFRα1-mediated cell survival after cisplatin treatment (Cisplatin+GDNF (50 ng/ml), 24 h)
Cn1cnc(N)c2ncnc1-2 [3-MA, 3-methyladenine] | blocked | 
B1 |  | did not have an effect
